Laboratory results taken from ChEMBL document CHEMBL1201862, “PubChem BioAssay data set” (2004).
Blank lines part the entries; values can stand above or below the compound they belong to. Activity calls are given as the source filed them.

Key:
[1] = target: Ras and Rab interactor 1/Tyrosine-protein kinase ABL1 (Homo sapiens, UniProt P00519+Q13671); type: functional;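 also: biochemical TR-FRET dose-response test measuring inhibition of binding between Rin1 and Abl proteins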
[2] = NIH3T3 cell viability loss – ATP luminescence, mouse fibroblasts, counter-screen, dose response (AID 2010); type: functional, cell-based;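 also: cells exposed to compound for about 90 hours before reading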
[3] = Luminescence Cell-Based Dose Retest to Confirm Inhibitors of Cancer Stem Cells. [Related pubchem assays (depositor defined):AID2717, AID2721]; type: functional; conditions: Homo sapiens
[4] = target: T1, Ubiquitin-conjugating enzyme E2 N (Homo sapiens, UniProt P61088); type: functional;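 also: Dose-response confirmation in a TR-FRET assay detecting UBC13-driven polyubiquitin chain formation, inhibition measured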
T1 sequence (P61088 whole entry): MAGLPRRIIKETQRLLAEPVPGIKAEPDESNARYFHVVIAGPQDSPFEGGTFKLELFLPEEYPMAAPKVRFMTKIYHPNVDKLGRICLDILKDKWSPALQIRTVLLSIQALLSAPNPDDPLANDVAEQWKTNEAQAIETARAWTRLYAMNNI

[5] = target: T2, DNA repair protein RAD52 homolog (Homo sapiens, UniProt P43351); type: functional, biochemical
T2 sequence (P43351 whole entry): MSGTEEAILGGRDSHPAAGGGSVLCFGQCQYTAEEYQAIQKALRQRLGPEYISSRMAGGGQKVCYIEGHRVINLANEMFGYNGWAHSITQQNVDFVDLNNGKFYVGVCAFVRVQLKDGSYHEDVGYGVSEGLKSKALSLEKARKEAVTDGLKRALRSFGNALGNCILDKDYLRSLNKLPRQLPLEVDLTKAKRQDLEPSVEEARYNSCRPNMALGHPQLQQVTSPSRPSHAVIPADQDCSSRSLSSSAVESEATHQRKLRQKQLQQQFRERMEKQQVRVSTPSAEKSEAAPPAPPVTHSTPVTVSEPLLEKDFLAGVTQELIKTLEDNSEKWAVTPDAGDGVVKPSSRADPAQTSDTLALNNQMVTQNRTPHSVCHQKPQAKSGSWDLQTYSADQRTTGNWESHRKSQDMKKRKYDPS

[6] = Trypanosoma cruzi growth suppression in host cells – NIH3T3 host cells, beta-gal luminescence, confirmation (AID 2044); type: functional, cell-based;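 also: intracellular parasites grown in NIH/3T3 mouse fibroblasts as host cells; luminescent beta-galactosidase reporter signal from transgenic T. cruzi replicating inside host cells; inhibitors lower the luminescence signal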
[7] = HIV-1 AD8 envelope cell-cell fusion blockers – cherry-pick, dose response (AID 652062); type: functional, cell-based;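 also: luciferase signal from cell-cell fusion driven by HIV-1 clade B AD8 Env; potency is for inhibitors of fusion seen as a drop in luminescence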
[8] = blockers of HIV-1 ZM109 envelope-driven cell-cell fusion – HeLa effector, CEM target cells, luciferase, cherry-pick, dose response (AID 652058); type: functional, cell-based;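 also: luciferase signal from HIV-1 Env mediated cell-cell fusion of effector and target cells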
[9] = blockers of HIV-1 envelope-mediated cell-cell fusion – cherry-pick, dose response (AID 652057); type: functional, cell-based
[10] = target: T3, Carboxy-terminal domain RNA polymerase II polypeptide A small phosphatase 1 (Homo sapiens, UniProt Q9GZU7); test: CTDSP1 inhibitors, concentration-response, biochemical, absorbance readout, ultra-high-throughput screen actives (AID 540297); type: functional
T3 sequence (Q9GZU7 whole entry): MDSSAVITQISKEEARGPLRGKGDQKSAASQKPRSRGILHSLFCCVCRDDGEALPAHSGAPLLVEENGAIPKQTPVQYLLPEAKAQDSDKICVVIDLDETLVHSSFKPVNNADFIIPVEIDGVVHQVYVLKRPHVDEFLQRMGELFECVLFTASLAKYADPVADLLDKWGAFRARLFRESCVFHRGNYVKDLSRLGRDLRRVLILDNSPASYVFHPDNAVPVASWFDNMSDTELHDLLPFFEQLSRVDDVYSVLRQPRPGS

INS1 = test: INS-1E survival protection against cytokine death – cell-based, luminescence, retest, dose response (AID 449756); type: functional; conditions: Rattus norvegicus;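 also: cell death triggered by IL-1 beta plus TNF-alpha plus IFN-gamma mixture; protective hits raise ATP signal compared with cytokine alone wells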
[11] = reduction of Shn3 3'UTR-driven luciferase in osteoblasts – cell-based, Clone20 osteoblasts, firefly luciferase, cherry-picked, dose response (AID 624132); type: functional;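 also: firefly luciferase luminescence from reporter carrying the Shn3 3'UTR in osteoblasts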
[12] = non-specific 3'UTR reporter inhibition in Clone20-Shn3RL – cell-based, Renilla luciferase, cherry-picked, counter-screen for Shn3 inhibitor project, dose response (AID 624133); type: functional
[13] = intracellular Trypanosoma cruzi inhibitors in host cells – cell-based, plate reader, cherry-pick samples, set 3, dose response (AID 651818); type: functional;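 also: compounds incubated with infected cells for about four days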

Ras and Rab interactor 1/Tyrosine-protein kinase ABL1, sequence (P00519 whole entry): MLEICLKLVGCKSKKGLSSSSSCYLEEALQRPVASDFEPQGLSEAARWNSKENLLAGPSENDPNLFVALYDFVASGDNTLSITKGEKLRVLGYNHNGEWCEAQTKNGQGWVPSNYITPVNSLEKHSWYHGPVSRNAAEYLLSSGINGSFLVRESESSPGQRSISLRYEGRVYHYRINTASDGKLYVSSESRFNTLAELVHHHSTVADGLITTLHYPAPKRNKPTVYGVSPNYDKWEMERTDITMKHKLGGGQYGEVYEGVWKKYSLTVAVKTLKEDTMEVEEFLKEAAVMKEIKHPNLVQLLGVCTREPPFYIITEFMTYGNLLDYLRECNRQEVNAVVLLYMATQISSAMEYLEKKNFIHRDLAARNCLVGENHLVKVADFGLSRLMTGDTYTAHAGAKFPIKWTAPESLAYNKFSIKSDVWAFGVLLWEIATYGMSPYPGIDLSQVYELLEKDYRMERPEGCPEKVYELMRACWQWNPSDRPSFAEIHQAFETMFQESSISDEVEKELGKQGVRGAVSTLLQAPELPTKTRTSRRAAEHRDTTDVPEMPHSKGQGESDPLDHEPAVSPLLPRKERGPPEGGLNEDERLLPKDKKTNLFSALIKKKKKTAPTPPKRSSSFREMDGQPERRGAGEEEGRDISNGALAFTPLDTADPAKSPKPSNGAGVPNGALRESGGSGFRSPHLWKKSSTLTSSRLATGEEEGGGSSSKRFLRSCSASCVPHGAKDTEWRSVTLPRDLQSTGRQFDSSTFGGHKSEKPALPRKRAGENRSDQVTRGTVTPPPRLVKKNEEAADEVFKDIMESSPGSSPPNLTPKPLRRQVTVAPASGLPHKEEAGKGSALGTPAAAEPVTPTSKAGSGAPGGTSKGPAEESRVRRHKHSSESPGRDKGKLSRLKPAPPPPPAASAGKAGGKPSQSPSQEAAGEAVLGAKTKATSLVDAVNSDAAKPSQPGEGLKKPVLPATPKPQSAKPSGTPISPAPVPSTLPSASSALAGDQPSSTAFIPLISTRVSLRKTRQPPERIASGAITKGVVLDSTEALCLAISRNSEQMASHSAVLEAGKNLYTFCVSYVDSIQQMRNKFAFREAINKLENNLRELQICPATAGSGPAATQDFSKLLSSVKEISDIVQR
Ras and Rab interactor 1/Tyrosine-protein kinase ABL1, sequence (Q13671 whole entry): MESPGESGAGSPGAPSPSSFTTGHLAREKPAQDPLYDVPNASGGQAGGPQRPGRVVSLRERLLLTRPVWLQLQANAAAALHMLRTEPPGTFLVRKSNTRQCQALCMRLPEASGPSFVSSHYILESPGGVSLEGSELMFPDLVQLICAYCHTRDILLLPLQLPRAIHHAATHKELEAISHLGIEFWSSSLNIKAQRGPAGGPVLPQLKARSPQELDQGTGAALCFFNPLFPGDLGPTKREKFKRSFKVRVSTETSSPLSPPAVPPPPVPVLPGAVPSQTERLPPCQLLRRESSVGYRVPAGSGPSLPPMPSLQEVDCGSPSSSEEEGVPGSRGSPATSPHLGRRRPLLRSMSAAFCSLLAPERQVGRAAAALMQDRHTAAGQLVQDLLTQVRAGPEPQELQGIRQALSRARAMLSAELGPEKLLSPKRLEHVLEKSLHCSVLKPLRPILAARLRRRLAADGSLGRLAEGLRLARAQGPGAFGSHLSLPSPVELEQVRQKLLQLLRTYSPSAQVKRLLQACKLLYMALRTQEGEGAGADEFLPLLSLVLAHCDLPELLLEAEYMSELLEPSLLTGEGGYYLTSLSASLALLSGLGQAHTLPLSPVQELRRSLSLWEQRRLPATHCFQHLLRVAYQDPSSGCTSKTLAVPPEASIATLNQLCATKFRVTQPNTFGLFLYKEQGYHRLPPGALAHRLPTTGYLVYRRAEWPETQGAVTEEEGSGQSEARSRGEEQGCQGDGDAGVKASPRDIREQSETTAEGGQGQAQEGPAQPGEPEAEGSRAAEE

IC50 [1]: > 73.5 µM (inactive)
Structure (SMILES): COC(=O)c1c(C)nc(C)c2c(=O)oc3ccccc3c12

Structure (SMILES): CCN1CCN(CCCNC(=O)c2ccc(/C=C3/Sc4ccccc4N(Cc4ccccc4F)C3=O)cc2)CC1
EC50 [2]: 22.8 µM (active) | AC50 [3]: 2.41 µM (active) | IC50 [4]: > 20 µM (inactive) | AC50 [5]: 8.67 µM (active) | EC50 [6]: 1.07 µM (active)

Structure (SMILES): C[C@H](CO)N1C[C@H](C)[C@H](CN(C)S(=O)(=O)c2ccccc2)Oc2ccc(NC(=O)Cc3cn(C)c4ccccc34)cc2CC1=O
AC50 [7]: 12 µM (active) | AC50 [8]: 0.816 µM (active) | AC50 [9]: < 0.26 µM (active)

IC50 [10]: 7.44 µM (active)
Structure (SMILES): CC(=O)Nc1ccc(S(=O)(=O)NC2=NC(=O)/C(=C\c3ccco3)S2)cc1

Structure (SMILES): COCCn1c(SCC(=O)/C=C2\N(C)c3ccccc3C2(C)C)nnc1-c1ccncc1
AC50 (INS1): 6.34 µM (active) | AC50 [11]: 2.65 µM (active) | AC50 [12]: 5.61 µM (active)

IC50 [10]: 4.41 µM (active)
Structure (SMILES): O=C(COC(=O)c1cccc(S(=O)(=O)N2CCN(c3ccccc3)CC2)c1)NCc1ccco1

IC50 [10]: 6.96 µM (active)
Structure (SMILES): Cc1ccc(Cl)cc1N1CCN(C(=O)CSc2ccsc2[N+](=O)[O-])CC1

Structure (SMILES): C[C@H](CO)N1C[C@H](C)[C@H](CN(C)C(=O)Nc2ccccc2)Oc2c(NC(=O)c3ccncc3)cccc2C1=O
AC50 [13]: 2.12 µM (active)

Structure (SMILES): CCN(CC)c1ccc(/C=N/NC(=O)CCCCCCC(=O)Nc2ccccc2O)c(O)c1
AC50 [13]: 1.94 µM (active)

Structure (SMILES): NC(=O)C(CC(=O)O)NC(=O)[C@@H]1CCCNc2c(I)cc([N+](=O)[O-])cc2C(=O)N[C@@H](CO)C(=O)N[C@@H](Cc2ccc(O)cc2)C(=O)N1 (some centres undefined)
IC50 [10]: 19.7 µM (active)

Structure (SMILES): C[C@@H]1CCCCO[C@@H](CN(C)C(=O)Nc2ccc(C(F)(F)F)cc2)[C@@H](C)CN([C@H](C)CO)C(=O)c2cc(NC(=O)NC3CCCCC3)ccc2O1
AC50 [13]: 5.12 µM (active)
